Consider ten compounds from BindingDB's records for doi:10.1021/jm001134q (Linkoping University, 2001).

In this assay the target is T1, Dimer of Gag-Pol polyprotein [489-587] (Human immunodeficiency virus 1, UniProt P12497).
T1 construct: 489-587
Put plainly: Protease Inhibition Assay. The following applies: pH 5; 30 °C. The protocol:
A fluorimetric assay was used to determine the effects of the inhibitors on HIV-1 protease. This assay used an internally quenched fluorescent peptide substrate. The measurements were performed in 96-well plates with a Fluoroscan plate reader. Excitation and emission wavelengths were 355 nm and 500 nm, respectively.

`O=C(N[C@H]1c2ccccc2C[C@H]1O)[C@H](OCc1ccccc1)[C@H](O)[C@@H](O)[C@@H](OCc1ccccc1)C(=O)N[C@H]1c2ccccc2C[C@H]1O` [symmetric/asymmetric inhibitor 2] returned a Ki of 1.22 nM. As to `O=C(N[C@H]1c2ccccc2C[C@H]1O)[C@H](OCc1ccccc1F)[C@H](O)[C@@H](O)[C@@H](OCc1ccccc1F)C(=O)N[C@H]1c2ccccc2C[C@H]1O` [(2R,3R,4R,5R)-2,5-bis[(2-fluorophenyl)methoxy]-3,4-dihydroxy-N,N'-bis[(1S,2R)-2-hydroxy-2,3-dihydro-1H-inden-1-yl]hexanediamide], the Ki was 3.26 nM. This Ki is about 2.7-fold higher than that of the compound before.

Consider `O=C(N[C@H]1c2ccccc2C[C@H]1O)[C@H](OCc1ccc(F)c(F)c1)[C@H](O)[C@@H](O)[C@@H](OCc1ccc(F)c(F)c1)C(=O)N[C@H]1c2ccccc2C[C@H]1O` [N1,N6-Bis-[(2R)-hydroxy-1(S)-indanyl]-(2R,3R,4R,5R)-2.5-bis-(3,4-difluorobenzyloxy)-3,4-dihydroxyhexanediamide], for which the Ki amounted to 3.9 nM. The Ki values of the last two compounds are within 1.5-fold of each other.

The compound `O=C(N[C@H]1c2ccccc2C[C@H]1O)[C@H](OCc1cccc(F)c1)[C@H](O)[C@@H](O)[C@@H](OCc1cccc(F)c1)C(=O)N[C@H]1c2ccccc2C[C@H]1O` [(2R,3R,4R,5R)-2,5-bis[(3-fluorophenyl)methoxy]-3,4-dihydroxy-N,N'-bis[(1S,2R)-2-hydroxy-2,3-dihydro-1H-inden-1-yl]hexanediamide] showed a Ki of 7.13 nM. As for `O=C(N[C@H]1c2ccccc2C[C@H]1O)[C@H](OCc1cc(F)cc(F)c1)[C@H](O)[C@@H](O)[C@@H](OCc1cc(F)cc(F)c1)C(=O)N[C@H]1c2ccccc2C[C@H]1O` [(2R,3R,4R,5R)-2,5-bis[(3,5-difluorophenyl)methoxy]-3,4-dihydroxy-N,N'-bis[(1S,2R)-2-hydroxy-2,3-dihydro-1H-inden-1-yl]hexanediamide], the figure is 5 nM. `O=C(N[C@H]1c2ccccc2C[C@H]1O)[C@H](OCc1c(F)cccc1F)[C@H](O)[C@@H](O)[C@@H](OCc1c(F)cccc1F)C(=O)N[C@H]1c2ccccc2C[C@H]1O` [N1,N6-Bis-[(2R)-hydroxy-1(S)-indanyl]-(2R,3R,4R,5R)-2.5-bis-(2,6-difluorobenzyloxy)-3,4-dihydroxyhexanediamide]: affinity was put at a Ki of 1.64 nM. In turn, `O=C(N[C@H]1c2ccccc2C[C@H]1O)[C@H](OCc1cccc(F)c1F)[C@H](O)[C@@H](O)[C@@H](OCc1cccc(F)c1F)C(=O)N[C@H]1c2ccccc2C[C@H]1O` [N1,N6-Bis-[(2R)-hydroxy-1(S)-indanyl]-(2R,3R,4R,5R)-2.5-bis-(2,3-difluorobenzyloxy)-3,4-dihydroxyhexanediamide] registered a Ki of 4 nM. As for `O=C(N[C@H]1c2ccccc2C[C@H]1O)[C@H](OCc1ccc(F)cc1F)[C@H](O)[C@@H](O)[C@@H](OCc1ccc(F)cc1F)C(=O)N[C@H]1c2ccccc2C[C@H]1O` [N1,N6-Bis-[(2R)-hydroxy-1(S)-indanyl]-(2R,3R,4R,5R)-2.5-bis-(2,4-difluorobenzyloxy)-3,4-dihydroxyhexanediamide], the Ki worked out at 1.65 nM. This Ki lies about 2.4-fold lower than the previous one. `O=C(N[C@H]1c2ccccc2C[C@H]1O)[C@H](OCc1cc(F)ccc1F)[C@H](O)[C@@H](O)[C@@H](OCc1cc(F)ccc1F)C(=O)N[C@H]1c2ccccc2C[C@H]1O` [(2R,3R,4R,5R)-2,5-bis[(2,5-difluorophenyl)methoxy]-3,4-dihydroxy-N,N'-bis[(1S,2R)-2-hydroxy-2,3-dihydro-1H-inden-1-yl]hexanediamide] showed an inhibitory constant (Ki) of 3.29 nM. Compared with the last compound, the Ki is about 2-fold higher. `O=C(N[C@H]1c2ccccc2C[C@H]1O)[C@H](OCc1ccc(F)cc1)[C@H](O)[C@@H](O)[C@@H](OCc1ccc(F)cc1)C(=O)N[C@H]1c2ccccc2C[C@H]1O` [(2R,3R,4R,5R)-2,5-bis[(4-fluorophenyl)methoxy]-3,4-dihydroxy-N,N'-bis[(1S,2R)-2-hydroxy-2,3-dihydro-1H-inden-1-yl]hexanediamide] had a Ki of 5.39 nM.
